Reference: patent US20100029702A1, “Method For Identification of Compound Having Anti-Anxiety Effect” (priority 2006, published 2010)

Target: T1, protein encoded by ph01207 (Homo sapiens, UniProt O60241, DEL308-362)
T1 construct: expressed in transfected cells; host or cells: CHO-K1 (HA-ph01207#10-6, FERM BP-10101), T8HA-attR/pCINeo
T1 sequence (O60241 with tags, fused parts or gaps DEL308-362): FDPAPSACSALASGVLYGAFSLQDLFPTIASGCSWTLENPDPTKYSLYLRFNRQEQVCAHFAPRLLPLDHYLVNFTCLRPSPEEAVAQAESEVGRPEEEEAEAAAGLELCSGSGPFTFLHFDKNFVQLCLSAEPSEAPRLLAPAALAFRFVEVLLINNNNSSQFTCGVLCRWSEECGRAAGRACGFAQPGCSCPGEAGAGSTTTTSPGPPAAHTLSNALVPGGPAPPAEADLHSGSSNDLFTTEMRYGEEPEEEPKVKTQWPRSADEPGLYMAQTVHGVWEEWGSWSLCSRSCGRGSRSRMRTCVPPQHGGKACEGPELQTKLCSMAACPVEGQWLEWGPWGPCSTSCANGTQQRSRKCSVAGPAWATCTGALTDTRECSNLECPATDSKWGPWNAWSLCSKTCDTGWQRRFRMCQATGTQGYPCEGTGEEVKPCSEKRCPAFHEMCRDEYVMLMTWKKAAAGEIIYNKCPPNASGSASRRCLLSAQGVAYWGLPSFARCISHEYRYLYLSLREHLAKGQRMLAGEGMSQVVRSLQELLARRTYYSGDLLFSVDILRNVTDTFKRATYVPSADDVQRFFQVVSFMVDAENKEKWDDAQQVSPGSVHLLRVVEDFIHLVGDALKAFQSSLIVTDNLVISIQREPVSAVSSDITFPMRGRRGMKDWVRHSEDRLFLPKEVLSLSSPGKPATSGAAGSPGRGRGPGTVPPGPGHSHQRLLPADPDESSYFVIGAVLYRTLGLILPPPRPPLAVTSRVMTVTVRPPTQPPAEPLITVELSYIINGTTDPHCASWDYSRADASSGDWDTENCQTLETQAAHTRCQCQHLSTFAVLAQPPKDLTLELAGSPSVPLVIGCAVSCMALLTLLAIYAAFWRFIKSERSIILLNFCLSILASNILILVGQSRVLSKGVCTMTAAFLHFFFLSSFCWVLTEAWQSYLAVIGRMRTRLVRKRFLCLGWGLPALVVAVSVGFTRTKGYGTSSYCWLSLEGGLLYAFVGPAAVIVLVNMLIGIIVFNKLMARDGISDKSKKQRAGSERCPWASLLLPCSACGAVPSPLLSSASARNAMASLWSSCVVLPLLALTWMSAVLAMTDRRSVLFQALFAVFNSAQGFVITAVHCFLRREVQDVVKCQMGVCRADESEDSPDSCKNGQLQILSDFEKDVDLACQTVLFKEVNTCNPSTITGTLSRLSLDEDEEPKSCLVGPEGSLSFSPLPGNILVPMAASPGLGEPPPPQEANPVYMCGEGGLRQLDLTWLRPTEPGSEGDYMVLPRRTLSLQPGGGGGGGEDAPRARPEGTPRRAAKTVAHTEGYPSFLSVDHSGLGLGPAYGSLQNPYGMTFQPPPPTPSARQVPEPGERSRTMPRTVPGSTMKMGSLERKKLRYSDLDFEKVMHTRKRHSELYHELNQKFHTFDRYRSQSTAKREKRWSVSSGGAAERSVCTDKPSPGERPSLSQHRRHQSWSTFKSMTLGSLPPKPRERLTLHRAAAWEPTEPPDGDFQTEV
Experiment: Changes in intracellular Ca2+ concentration in HA-ph01207#10-6 cell strain (CHO-K1 stably expressing ph01207)
Assay type: cell-based
Method: Changes in the intracellular calcium (Ca^2+) concentration induced by CCK-8S (SEQ ID NO: 14), CCK-8NS, or CCK-4 were measured using the cell strains expressing ph01207 prepared in Example 2. The cell strains prepared in Example 2 were eight strains that expressed the protein encoded by ph01207 as FLAG-tag fusion proteins and four strains that expressed the protein encoded by ph01207 as HA-tag fusion proteins. Of these, the HA-ph01207#10-6 cell strain, a strain obtained by cloning one of the cell strains that stably expressed the protein encoded by ph01207 as HA-tag fusion proteins, was used in this example. CCK-8NS was a CCK octapeptide having the same amino acid sequence as that of CCK-8S (SEQ ID NO: 14), but a region from the C terminus to the seventh tyrosine residue was not sulfated. CCK-4 was a tetrapeptide comprising residues from the C terminus to the fourth amino acid of CCK-8S (SEQ ID NO: 14).
The specific method for measuring changes in the intracellular Ca^2+ concentration in the HA-ph01207#10-6 cell strain induced by CCK-8S (SEQ ID NO: 14) and the results are described below. The HA-ph01207#10-6 cell strain was seeded on a 96-well plate (a plate with a black wall and a transparent bottom) at a cell count of 2×10^4/100 μL medium/well and cultured at 37° C. in the presence of 5% CO2. As a medium, DMEM/F12 (Gibco) containing 10% fetal calf serum (Moregate) was used. On the following day, 50 μL of the medium was removed from each well, 50 μL of a loading buffer was added to each well, and the mixture was reacted at room temperature for 1.5 h, so that a fluorescent dye contained in the loading buffer should be taken up into the cell. The loading buffer was prepared by dissolving component A of the FLIPR Calcium 3 Assay Kit (Molecular Device) in a solution obtained by adding 0.1 mL of 500 mM probenecid (Sigma) to 9.9 mL of component B. After reaction, changes over time in the fluorescence intensity in each well after addition of CCK-8S (Peptide Institute, Inc.) were measured using the FLEX station (Molecular Device). Furthermore, similar measurement was performed for CCK-8NS (Peptide Institute, Inc.) and CCK-4 (Peptide Institute, Inc.). 0.52 mg of CCK-8S (SEQ ID NO: 14) was dissolved in 4.5 mL of 1% NaHCO3 (Wako) to prepare a solution having 0.1 mM concentration. 0.53 mg of CCK-8NS was dissolved in 0.50 mL of dimethyl sulfoxide (DMSO, Sigma), and then 4.50 mL of redistilled water H2O was added to prepare a solution having 0.1 mM concentration. 0.54 mg of CCK-4 was dissolved in 0.46 mL of DMSO, 4.09 mL of redistilled water was added to prepare a solution having 0.2 mM concentration. […]

Row | Compound | Change in intracellular Ca2+ concentration (fluorescence intensity) (A23187 10 μM, positive control) | Change in intracellular Ca2+ concentration (fluorescence intensity) (peptide at final concentration 1 nM)
1 | CNc1ccc2oc(C[C@H]3O[C@@]4(CC[C@H]3C)O[C@H]([C@H](C)C(=O)c3ccc[nH]3)[C@H](C)C[C@H]4C)nc2c1C(=O)O [A23187] | increased | –
2 | cholecystokinin octapeptide sulfated form [CCK-8S] | – | increased
